According to patent US6699686B1, “Modified nuclear glucocorticoid receptor, fusion protein, and DNA fragments coding for said receptor and said fusion protein” (Association pour le Development de la Recherche en …, priority 1996, dated 2004):

How the values were obtained:
[1] = target: T1, Cre-LBD[GR(I747/T)] (Homo sapiens, UniProt P04150, I747T); test: PCR test of recombinase activity in HeLa cells cotransfected with pCre-LBD[GR(I747/T)] and pRXRα(LNL); assay type: cell-based; settings: ligand 10^−7 M, 72 hours
T1 construct: the region containing the mutated LBD of HG1 [aa 500-777]; Cre recombinase aa 1-343 (bacteriophage P1); F region of the human estrogen receptor (aa 553-595); expressed in transfected cells
T1 sequence (P04150 500-777 I747T): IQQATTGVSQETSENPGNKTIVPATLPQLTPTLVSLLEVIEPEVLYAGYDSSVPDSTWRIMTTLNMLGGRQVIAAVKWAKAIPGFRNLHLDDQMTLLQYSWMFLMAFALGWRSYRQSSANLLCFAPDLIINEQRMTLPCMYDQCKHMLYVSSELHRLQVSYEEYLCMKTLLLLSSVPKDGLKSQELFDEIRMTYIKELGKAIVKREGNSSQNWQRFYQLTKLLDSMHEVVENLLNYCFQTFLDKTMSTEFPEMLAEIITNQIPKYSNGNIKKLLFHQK
Description: [optionally cotransfected with 5 μg of the vector pRXRα^(LNL) for the HeLa cells] with the aid of an electroporator (Bio-Rad gene pulser), set at 200 V and 960 μF. The cells were then inoculated at 10^6 cells per 100 mm dish and treated, if necessary, with ligands.
The products of the reaction were separated on acrylamide gel and stained with ethidium bromide. Lane 1 corresponds to the loading of the 1 kb ladder size marker (GibcoBRL).

[2] = target: T2, wild-type hGR (Homo sapiens, UniProt P04150); test: Transcriptional activation of pTAT-tk-Luc luciferase reporter in transiently transfected CV-1 cells; assay type: cell-based; parameters: Luciferase activity % Wild type: concentration or dose not given beside the values; settings: for Luciferase activity % Wild type: 24 h ligand, mean of three independent assays; for EC50: ligand concentration giving 50% of maximum transcriptional response
T2 construct: expressed in transfected cells
T2 sequence (P04150 1-777): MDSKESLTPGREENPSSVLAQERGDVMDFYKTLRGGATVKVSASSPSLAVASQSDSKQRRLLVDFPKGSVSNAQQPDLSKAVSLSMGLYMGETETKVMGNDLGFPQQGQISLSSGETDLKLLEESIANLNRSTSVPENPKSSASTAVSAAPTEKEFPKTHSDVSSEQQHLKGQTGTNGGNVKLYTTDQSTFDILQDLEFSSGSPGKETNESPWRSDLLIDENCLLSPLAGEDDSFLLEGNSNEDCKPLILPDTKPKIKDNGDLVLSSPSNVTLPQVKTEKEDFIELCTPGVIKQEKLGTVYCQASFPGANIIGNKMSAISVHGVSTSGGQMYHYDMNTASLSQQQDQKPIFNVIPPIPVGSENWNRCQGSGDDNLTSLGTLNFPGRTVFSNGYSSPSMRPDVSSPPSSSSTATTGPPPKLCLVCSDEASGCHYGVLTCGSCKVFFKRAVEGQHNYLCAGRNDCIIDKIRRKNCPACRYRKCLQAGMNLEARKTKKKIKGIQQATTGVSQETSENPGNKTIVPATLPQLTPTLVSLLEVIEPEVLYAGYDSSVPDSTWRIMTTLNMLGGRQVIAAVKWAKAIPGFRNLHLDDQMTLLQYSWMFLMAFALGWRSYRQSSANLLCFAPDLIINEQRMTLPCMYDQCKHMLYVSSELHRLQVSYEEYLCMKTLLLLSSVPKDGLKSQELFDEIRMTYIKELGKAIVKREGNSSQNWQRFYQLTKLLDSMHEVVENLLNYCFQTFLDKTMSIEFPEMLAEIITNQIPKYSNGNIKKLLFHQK
Description: The receptors were transiently expressed in GR-free CV-1 cells, conjointly with a luciferase reporter gene under the control of the tyrosine aminotransferase promoter (pTAT-tk-Luc).
After transfection, the cells were incubated for 24 hours with increasing concentrations of Dex, and they were then subjected to an assay of the β-galactosidase and luciferase activities, as described in “Materials and Methods”. The luciferase activity was normalized with the β-galactosidase activity, and the value obtained in the absence of ligand was subtracted for each point. The results were expressed as a percentage of the maximum luciferase activity obtained for each receptor. Each point is the mean±standard deviation of the mean of four separate determinations carried out in duplicate. […] The [^3H] steroid attached was measured after treatment with dextran-coated charcoal. The results presented are those for a single assay carried out in duplicate and representative of three separate assays.
Co-transfections were carried out and dose-response curves were constructed as described in FIG. 2. […] The assays of luciferase and β-galactosidase activity were carried out as described in “Materials and Methods”. The mean values of three independent assays are given in this table. nm=not measurable.
The CV-1 and Cos-7 cells were cultured in Dulbeco's modified Eagle's medium (DMEM) containing 10% (v/v) of fetal calf serum (FCS) (Gibco, Grand Island, N.Y.), in a humidified atmosphere containing 5% CO2. The HeLa cells were cultured under the same conditions. Transient transfections were carried out in 6-well multiplates according to the calcium phosphate procedure already described (42). A reference recombinant plasmid, pCMV-βgal, expressing bacterial β-galactosidase, was transfected conjointly with the receptor expression vector and the corresponding reporter gene so as to correct possible variations in he transfection efficiency. The precipitate was removed by washing after 24 hours, and the cells were kept in DMEX without FCS but containing hormone. After another 24 hours, the cells were rinsed and lysed for 15 minutes with 0.3 ml of lysis buffer [25 mM Tris.phosphate, pH 7.8, 8 mM […], 1% Triton X100, 10% glycerol (48)]. The corresponding luciferase activity as determined on an aliquot fraction (0.1 ml), by evaluation of the luminescence peak (for an integration time of 15 seconds), after injection of 0.1 ml of 1 mM luciferin in an LKB luminometer. The β-galactosidase was determined by the method modified by Bocquel et al. (49), for controlling the efficiency of each transfection.
The reporter gene pTAT-tk-Luc was provided by D. Gagne and was constructed as follows: an intermediate plasmid pTAT was first generated by insertion of the 966 bp EcoRI-BamHI segment obtained from pKT531 [offered freely by T. Grande (50)] into the corresponding sites of the vector pUC19 (Pharmacia). The fragment containing the sequence coding for the firefly luciferase and the thymidine kinase (tk) minimal promoter obtained from the Herpes simplex virus was isolated in the form of a BamHI fragment from pvit-tk-Luc (51) and inserted, downstream of the TAT promoter, into the corresponding site of pTAT. The reporter plasmid pGRE-tk-Luc was constructed by ligation of the fragment of HindIII-BglII digestion of pGRE-tk-CAT (52), which contains a synthetic GRE (AGAACAcagTGTTCT) upstream of the tk minimal promoter, into the HindIII-BglII sites of pLuc (53). The reporter gene p(17M)5-βGlob-Luc has been previously described (54). The reporter plasmid p(17M)5-tata-Luc was constructed from the plasmid p(17M)5-tata-CAT (55) by digestion with XhoI-BamHI and isolation of the fragment containing (17M5)-tata. This fragment was then inserted into the vector pGL2 (Promega) digested with the same restriction enzymes.

Compound | recombinase activity (PCR band of recombinant fragment) [1] | stimulation of the luciferase reporter with the wild-type GR [2] | Luciferase activity % Wild type [2] [%] | EC50 [2] [nM]
C[C@]12CCC(=O)C=C1CC[C@@H]1[C@@H]2[C@@H](O)C[C@@]2(C)[C@H]1CC[C@]2(O)C(=O)CO [Cortisol, cortisol] | only the fragment corresponding to the wild-type allele can be detected | as effective as Dex | 110 | 
C[C@]12C[C@H](O)[C@H]3[C@@H](CCC4=CC(=O)CC[C@@]43C)[C@@H]1CC[C@@H]2C(=O)CO [Corticosterone, corticosterone] | only the fragment corresponding to the wild-type allele can be detected | as effective as Dex | 100 | 70
C[C@]12CCC(=O)C=C1CC[C@@H]1[C@@H]2[C@@H](O)C[C@]2(C=O)[C@@H](C(=O)CO)CC[C@@H]12 [Aldosterone, aldosterone] | only the fragment corresponding to the wild-type allele can be detected | as effective as Dex | 90 | 50
C[C@@H]1C[C@H]2[C@@H]3CCC4=CC(=O)C=C[C@]4(C)[C@@]3(F)[C@@H](O)C[C@]2(C)[C@@]1(O)C(=O)CO [Dexamethasone, dexamethasone] |  |  | 100 | 
